The nature of the data set: Solubility behaviour of Ro5-3335 in aqueous solution. It counts as physicochemical. An excerpt: The invention provides a solution to many problems and/or drawbacks of earlier ocular formulations and features a nano-emulsion composition, e.g., a nano-emulsion comprising a core binding factor β (CBFβ)-Runt-Related Transcription Factor 1 (RUNX1) (CBFβ-RUNX1) inhibitor. […] With our emulsion, we have devised a composition to encapsulate the drug in a nanonsphere, which allows for suspension in an aqueous solution, and increases availability of the drug, and also improves penetration of ocular tissues.

SMILES strings stand for the structures.

As to `O=C1CN=C(c2ccc[nH]2)c2cc(Cl)ccc2N1` [Ro5-3335, 7-chloro-1,3-dihydro-5-(1h-pyrrol-2y-yl)-2H-1,4-benzodiazepin-2-one], the “solubility in aqueous solution” value is recorded as “insoluble in aqueous solution”.

Values taken from patent US12440443B2, “Nano-emulsion of CBFβ-RUNX1 inhibitor for ocular drug deliver” (Massachusetts Eye and Ear Infirmary, priority 2017, dated 2025).
